According to patent US20070231407A1, “Method of treating gallium-nitrate resistant tumors using gallium-containing compounds” (priority 2006, published 2007):

What was measured:
[1] = test system: CCRF-CEM cells; assay: MTT cell growth assay, CCRF-CEM cells (GaN-sensitive); format: cell-based, human; conditions: for IC50: MTT assay, 72 h incubation, read-out: IC50, inhibition of T lymphoma CCRF-CEM cell growth; for Inhibition of CCRF-CEM cell growth (in words): increasing concentrations, 72 h, MTT, FIG. 2
Experimental: CCRF-CEM cells were obtained from ATCC.
(§1) Mantle cell lymphoma (HBL-2 (Human B-cell lymphoma-derived cell line), Granta, JVM-2, NCEB-1, Z138C) and DoHH2 cell lines were obtained from the British Columbia Cancer Agency. p53 cell lines were obtained from the NCI. Gallium maltolate and gallium nitrate were obtained from Titan Pharmaceuticals Inc. (San Francisco, Calif.) and Genta Incorporated (Berkley Heights, N.J.), respectively. Cell proliferation was measured by MTT assay (Mosmann T. “Rapid colorimetric assay for cellular growth and survival: Application to proliferation and cytotoxicity assays”. J Immunol Methods 1983; 65:55-63, incorporated by reference here in its entirety). Caspase-3 activity was measured by ApoOne assay (Promega, Madison, Wis.). Assays for cellular ^59Fe-transferrin uptake and ^125I-transferrin binding were used as previously described in Chitambar, 1997.
(§2) CCRF-CEM cells were plated at a density of 2×10^5 cells/ml in microwell plates (100 μL cell suspension per well) in the presence of increasing concentrations of gallium maltolate or maltol (subsequently referred to as the additives). After 72 h of incubation, 10 μL MTT (3-(4,5-dimethlythiazol-2-yl)-2,5-diphenyltetrazolium bromide) was added to each well and the incubation continued for 4 h at 37° C. Cells were then solubilized by the addition of 100 μL of 0.4 N HCl in isopropanol to each well and the absorbance of each well was read at 570 nm using a microplate reader. The effect of the additives on cell proliferation was determined by comparing the absorbance from wells containing the additives with the absorbance from wells in which the additives were omitted (decreased absorbance signifies decreased cell proliferation). Cell growth was expressed as a percentage of control (cell growth in the absence of additives). Cell proliferation was assessed after 72 h of incubation with gallium maltolate or maltol.
Cell growth was determined by MTT assay as described in Example 1 above. Values shown are means +/−S.E. (n=4).
To determine the effect of GaM on the growth of gallium nitrate-resistant (GnR) and -sensitive (GnS) cells, cells were plated in microwell plates and incubated with GaM. Cellular proliferation was measured by MTT assay after 72 h incubation with GaM. Values shown are means +/−S.E. (n=4).

[2] = test system: GaN-resistant CCRF-CEM cells; assay: MTT cell growth assay, gallium nitrate-resistant (GnR) CCRF-CEM cells; format: cell-based, human
Experimental: (§3) Mantle cell lymphoma (HBL-2 (Human B-cell lymphoma-derived cell line), Granta, JVM-2, NCEB-1, Z138C) and DoHH2 cell lines were obtained from the British Columbia Cancer Agency. p53 cell lines were obtained from the NCI. […] Cell proliferation was measured by MTT assay (Mosmann T. “Rapid colorimetric assay for cellular growth and survival: Application to proliferation and cytotoxicity assays”. J Immunol Methods 1983; 65:55-63, incorporated by reference here in its entirety). Caspase-3 activity was measured by ApoOne assay (Promega, Madison, Wis.). Assays for cellular ^59Fe-transferrin uptake and ^125I-transferrin binding were used as previously described in Chitambar, 1997.
as §2, with “After 72 h of incubation, 10 μL MTT (3-(4,5-dimethlythiazol-2-yl)-2,5-diphenyltetrazolium bromide) was added to each well and the incubation continued for 4 h at 37° C.” left out, “Cell growth was expressed as a percentage of control (cell growth in the absence of additives). Cell proliferation was assessed after 72 h of incubation with gallium maltolate or maltol.” left out

[3] = test system: MCL cell lines HBL2, JVM2, Z138C, and Granta; assay: MTT cell growth assay, mantle cell lymphoma (MCL) cell lines; format: cell-based, human; conditions: range over the four cell lines, 72 h, read-out: IC50, growth inhibition of MCL cell lines HBL2, JVM2, Z138C, and Granta
Experimental: Mantle cell lymphoma (HBL-2 (Human B-cell lymphoma-derived cell line), Granta, JVM-2, NCEB-1, Z138C) and DoHH2 cell lines were obtained from the British Columbia Cancer Agency. p53 cell lines were obtained from the NCI. Gallium maltolate and gallium nitrate were obtained from Titan Pharmaceuticals Inc. (San Francisco, Calif.) and Genta Incorporated (Berkley Heights, N.J.), respectively. Cell proliferation was measured by MTT assay (Mosmann T. “Rapid colorimetric assay for cellular growth and survival: Application to proliferation and cytotoxicity assays”. J Immunol Methods 1983; 65:55-63, incorporated by reference here in its entirety). Caspase-3 activity was measured by ApoOne assay (Promega, Madison, Wis.). […]
as §2, with “After 72 h of incubation, 10 μL MTT (3-(4,5-dimethlythiazol-2-yl)-2,5-diphenyltetrazolium bromide) was added to each well and the incubation continued for 4 h at 37° C.” left out, “Cell growth was expressed as a percentage of control (cell growth in the absence of additives). Cell proliferation was assessed after 72 h of incubation with gallium maltolate or maltol.” left out

[4] = test system: p53 wt TK-6 cells; assay: MTT cell growth assay, p53 wt TK-6 cells; format: cell-based, human; conditions: 72 h
Experimental: as §3
as §2, with “After 72 h of incubation, 10 μL MTT (3-(4,5-dimethlythiazol-2-yl)-2,5-diphenyltetrazolium bromide) was added to each well and the incubation continued for 4 h at 37° C.” left out, “Cell growth was expressed as a percentage of control (cell growth in the absence of additives). Cell proliferation was assessed after 72 h of incubation with gallium maltolate or maltol.” left out

[5] = test system: p53 null HN-32 cells; assay: MTT cell growth assay, p53 null HN-32 cells; format: cell-based, human; conditions: 72 h
Experimental: as §3
as §2, with “After 72 h of incubation, 10 μL MTT (3-(4,5-dimethlythiazol-2-yl)-2,5-diphenyltetrazolium bromide) was added to each well and the incubation continued for 4 h at 37° C.” left out, “Cell growth was expressed as a percentage of control (cell growth in the absence of additives). Cell proliferation was assessed after 72 h of incubation with gallium maltolate or maltol.” left out

[6] = test system: p53 mutant WTK-1 cells; assay: MTT cell growth assay, p53 mutant WTK-1 cells; format: cell-based, human; conditions: 72 h
Experimental: as §3
as §2, with “After 72 h of incubation, 10 μL MTT (3-(4,5-dimethlythiazol-2-yl)-2,5-diphenyltetrazolium bromide) was added to each well and the incubation continued for 4 h at 37° C.” left out, “Cell growth was expressed as a percentage of control (cell growth in the absence of additives). Cell proliferation was assessed after 72 h of incubation with gallium maltolate or maltol.” left out

[7] = test system: HBL-2 cells; assay: MTT cell proliferation assay, mantle cell lymphoma HBL-2 cells; format: cell-based, human; conditions: 72 h, FIG. 3
Experimental: Mantle cell lymphoma (HBL-2 (Human B-cell lymphoma-derived cell line), Granta, JVM-2, NCEB-1, Z138C) and DoHH2 cell lines were obtained from the British Columbia Cancer Agency. p53 cell lines were obtained from the NCI. […] (San Francisco, Calif.) and Genta Incorporated (Berkley Heights, N.J.), respectively. Cell proliferation was measured by MTT assay (Mosmann T. “Rapid colorimetric assay for cellular growth and survival: Application to proliferation and cytotoxicity assays”. J Immunol Methods 1983; 65:55-63, incorporated by reference here in its entirety). Caspase-3 activity was measured by ApoOne assay (Promega, Madison, Wis.). Assays for cellular ^59Fe-transferrin uptake and ^125I-transferrin binding were used as previously described in Chitambar, 1997. […] Cells were then solubilized by the addition of 100 μL 0.4 N HCl in isopropanol to each well and the absorbance of each well was read at 570 nm using a spectrophotometer. Cell proliferation was measured after a 72 h incubation period. The effect of the additives on cell proliferation was determined by comparing the absorbance from wells with the additives with the absorbance from wells in which the additives were omitted (decreased absorbance signifies decreased cell proliferation). Cell growth was expressed as a percentage of control (cell growth in the absence of additives).

[8] = test system: caspase-3; assay: Caspase-3 activation (apo-One assay) in HBL-2 cells; format: cell-based, human; conditions: for Caspase-3 activity in exposed cells, dose dependence: see FIG. 4
Experimental: as §1
After incubation with these compounds, the cells were analyzed for apoptosis using the commercially available apo-One™ assay that measures caspase-3 activation. Data points are the means and S.E. of an experiment performed in triplicate.

[9] = test system: caspase-3; assay: Caspase-3 activity (apo-One assay) in GnR CCRF-CEM cells; format: cell-based, human; conditions: 24 h incubation, FIG. 5D
Experimental: as §1
After the incubation period, caspase-3 activity was measured by apo-One™ assay.

[10] = test system: HBL-2 cells; assay: Cellular 59Fe-transferrin (iron) uptake by HBL-2 cells; format: cell-based, human; conditions: 24 h, increasing concentrations of GaM, FIG. 7
Experimental: as §1
HBL-2 cells were incubated in complete medium in the presence of increasing concentrations of GaM. Radioiron (^59Fe-transferrin) was added to cells at the start of the incubation. After 24 h, cells were harvested, washed with phosphate buffered saline to remove unincorporated ^59Fe and centrifuged to pellet the cells. ^59Fe radioactivity in the cell pellet was counted in a gamma counter. The results showing that the amount of radioiron taken up by cells decreases with increasing concentrations of GaM are depicted in FIG. 7.

[11] = test system: transferrin (Tf) receptor; assay: 125I-transferrin binding assay, cell surface transferrin receptor density in HBL-2 cells; format: cell-based, human; conditions: FIG. 8
Experimental: as §1
To determine the mechanism by which GaM acts on cells, cellular transferrin receptor expression was evaluated in HBL-2 cells. The effect of GaM on cellular transferrin receptor expression was determined using a ^125I-transferrin (Tf) binding assay that measures the binding of the ligand Tf to its receptor (TfR). HBL-2 cells were incubated with increasing concentrations of GaM for 24 and 48 h and then analyzed for Tf binding using an established method. The amount of radioactive Tf bound to cellular TfR was calculated using Scatchard analysis.

[12] = test system: lymphoma cell lines; assay: Annexin V staining of cells exposed to gallium compounds; format: cell-based; conditions: cells exposed to GaN or GaM

| IC50 ([2]; MTT assay, 72 h incubation, read-out: IC50, growth inhibition of GaN-resistant cells) | SMILES | IC50 [1] | Inhibition of CCRF-CEM cell growth (in words) [1] | Proliferation of GnR cells resistant to GaN (in words) ([2]; FIG. 5) | IC50 [3] | IC50 [4] | Growth of p53 wt TK-6 cells (in words) ([4]; FIG. 6) | IC50 [5] | Growth of p53 null HN-32 cells (in words) ([5]; FIG. 6) | IC50 [6] | Growth of p53 mutant WTK-1 cells (in words) ([6]; FIG. 6) | Inhibition of HBL-2 cell proliferation, GaM compared with GaN (in words) [7] | Caspase-3 activation in HBL-2 cells ([8]; 48 h incubation, similar concentrations of GaM and GaN, FIG. 4) | Caspase-3 activity in exposed cells, dose dependence [8] | Caspase-3 activation in GnR cells [9] | Amount of radioiron (59Fe) taken up by cells [10] | Number of TfRs on the cell surface ([11]; 24 h, 25 and 50 μM GaM) | Number of TfRs on the cell surface ([11]; 48 h, 25 μM GaM) | Annexin V staining [12] |
| --- | --- | --- | --- | --- | --- | --- | --- | --- | --- | --- | --- | --- | --- | --- | --- | --- | --- | --- | --- |
| 70 µM | Cc1occc(=O)c1[O-].Cc1occc(=O)c1[O-].Cc1occc(=O)c1[O-].[Ga+3] [GaM, gallium maltolate] | 29 µM | inhibited | inhibits proliferation | 15 to 30 µM | 18 µM | inhibited to a similar extent | 45 µM | inhibited to a similar extent | 45 µM | inhibited to a similar extent | much lower concentrations of gallium were required to inhibit cell proliferation | activated | dose-dependent increase | activates caspase-3 | decreases | increase the number of TfRs | increases TfR number | increase |
| – | O=[N+]([O-])[O-].O=[N+]([O-])[O-].O=[N+]([O-])[O-].[Ga+3] [GaN, gallium nitrate, reference compound] | 103 µM | – | – | 45 to 400 µM | – | – | – | – | – | – | – | – | dose-dependent increase | not | – | – | – | increase |
| – | Cc1occc(=O)c1O [Maltol, maltol, reference compound] | – | did not inhibit cell growth | – | – | – | – | – | – | – | – | – | – | – | – | – | – | – | – |
